Data set [1] can be described thus: Solubility determination in PBS pH 7.4. Type of data set: physicochemical. Particulars: aqueous buffer, kinetic from dmso stock; PBS pH 7.4, 2 hours, 25° C.; the listed prodrug. As to the method: Stock solutions (10 mM DMSO, 30 μL) of each sample were placed into 96-well plate, along with 970 μL of PBS pH 7.4 were added into each vial of the cap-less solubility sample plate. The assay was performed in duplicate. A stir stick was added to each well and sealed using a molded PTFE/Silicone plug. Then the Solubility Sample plate was transferred to an Eppendorf Thermomixer Comfort plate shaker and shaken at 1100 RPM for 2 hours at 25° C. After completion the plugs and stir sticks were removed and the samples were transferred into a filter plate and filtered using a vacuum manifold. 5 μL aliquots of filtrate were taken and diluted with 5 μL DMSO and 490 μL of a 1:1 v/v mixture of H2O and acetonitrile. 200 μL of diluent was transferred to a new 96-well plate for LC-MS/MS analysis. The solution was analyzed and quantified against a standard of known concentration in DMSO using LC coupled with Mass spectral peak for identification and quantitation.

The target in data set [2] is T1, CDK1-NanoLuc fusion with CCNB1 in 293T or 293 cells (Homo sapiens, UniProt P06493).
T1 construct: host or cells: 293T (ATCC CRL-3216) or 293 (ATCC CRL-1573)
T1 sequence (P06493 whole entry, the tested form may be a part): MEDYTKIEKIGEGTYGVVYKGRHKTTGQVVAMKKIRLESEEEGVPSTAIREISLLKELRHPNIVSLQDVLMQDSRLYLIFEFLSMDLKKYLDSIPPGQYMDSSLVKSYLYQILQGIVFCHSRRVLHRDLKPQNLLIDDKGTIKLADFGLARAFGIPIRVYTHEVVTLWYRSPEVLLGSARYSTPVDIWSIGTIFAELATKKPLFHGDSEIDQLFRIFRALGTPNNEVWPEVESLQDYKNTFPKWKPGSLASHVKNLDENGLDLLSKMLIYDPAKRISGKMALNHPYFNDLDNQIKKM
T1 sequence (P14635 whole entry partner, the tested form may be a part): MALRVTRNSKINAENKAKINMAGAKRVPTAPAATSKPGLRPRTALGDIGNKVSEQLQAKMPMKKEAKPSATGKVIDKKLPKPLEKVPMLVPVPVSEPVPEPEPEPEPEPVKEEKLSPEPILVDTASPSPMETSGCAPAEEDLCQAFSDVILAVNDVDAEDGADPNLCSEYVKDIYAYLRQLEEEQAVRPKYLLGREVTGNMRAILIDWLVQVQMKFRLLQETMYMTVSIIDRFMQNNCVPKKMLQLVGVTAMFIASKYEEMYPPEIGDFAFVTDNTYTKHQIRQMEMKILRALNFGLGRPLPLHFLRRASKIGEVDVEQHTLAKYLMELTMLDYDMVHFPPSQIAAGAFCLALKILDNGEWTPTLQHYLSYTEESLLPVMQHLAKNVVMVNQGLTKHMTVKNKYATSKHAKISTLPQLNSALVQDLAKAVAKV
Briefly: NanoBRET Target Engagement (TE) Intracellular Kinase Assay, CDK1/CCNB1. It counts as cell-based. The note with it: NanoBRET TE intracellular kinase assay, 2-hour incubation, read-out: NanoBRET-CDK1/B1 IC50. Put shortly:
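293T or 293 cells co-transfected with CDK1-NanoLuc and CCNB1 vectors, incubated 24 h, then exposed to NanoBRET Tracer K-10 plus compound for 2 h at 37° C. BRET ratio (610/450 nm) normalized to DMSO; IC50 from four-parameter logistic fit.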

The target of a further data set is pCDK2-CCNE1 proteins (Homo sapiens, UniProt P24941). Briefly: Identification of covalent binding by intact mass spectrometry, with and without competitor PF-06873600. Particulars: for Observed mass value of the covalent complex between compound and CDK2 protein: intact mass spectrometry after borohydride reduction, unmodified CDK2 34096-34097 Da; for Covalent complex formation with CDK2 protein (intact mass spectra after sodium borohydride reduction) / Binding pocket by competition: complex formation in presence of molar excess PF-06873600: pCDK2-CCNE1 1 μM, compound 1.5 μM; for Covalent complex formation with CDK2 protein (intact mass spectra after sodium borohydride reduction): 1 hour at room temperature or 37° C., no competitor; for Binding pocket by competition: complex formation in presence of molar excess PF-06873600: competitor PF-06873600 20 μM. As to the method: pCDK2-CCNE1 proteins (1 μM) were treated with a compound (1.5 μM) from Table 4 for 1 hour at room temperature or 37° C., with and without competitor molecule PF-06873600 (20 μM final concentration) as a specificity control. As used herein, the competitor molecule is
As used herein, the competitor molecule is 6-(difluoromethyl)-8-((1R,2R)-2-hydroxy-2-methylcyclopentyl)-2-((1-(methylsulfonyl)piperidin-4-yl)amino)pyrido[2,3-d]pyrimidin-7(8H)-one (PF-06873600). Reversible imines were captured by reductive amination with the addition of 5 mM sodium borohydride at room temperature for 5 min. Reduction reactions were quenched by diluting the sample in equal volume of 1% trifluoroacetic acid (v/v) in acetonitrile, then analyzed by LC-MS. Deconvoluted monoisotopic intensities of unmodified and compound-modified mass peaks were compared.
FIGS. 1A to 1P provide intact mass spectra for pCDK2-CCNE1 proteins after incubation with compounds of the present disclosure and subsequent sodium borohydride reduction. […] Further, FIGS. 1A to 1P each provide intact mass spectra following the incubation of pCDK2-CCNE1 proteins with a compound of the present disclosure both in the absence of a competitor molecule (i.e., PF-06873600, a molecule known to bind to and inhibit the function of CDK2); and in the presence of a significant stoichiometric excess of a competitor molecule PF-06873600.
FIGS. 2A to 2N provide intact mass spectra for pCDK2-CCNE1 proteins after incubation with compounds of the present disclosure and subsequent sodium borohydride reduction.

The target in data set [3] is T2, CDK2-NanoLuc fusion with CCNE1 in 293T or 293 cells (Homo sapiens, UniProt P24941).
T2 construct: host or cells: 293T (ATCC CRL-3216) or 293 (ATCC CRL-1573)
Briefly: NanoBRET Target Engagement (TE) Intracellular Kinase Assay, CDK2/CCNE1. It counts as cell-based. Particulars: 2-hour incubation. (In general: In BRET a luciferase serves as donor, and the signal depends on an acceptor being close.)

Data set [4] deals with T3, CDK4-NanoLuc fusion with CCND1 in 293T or 293 cells (Homo sapiens, UniProt P11802).
T3 construct: host or cells: 293T (ATCC CRL-3216) or 293 (ATCC CRL-1573)
T3 sequence (P11802 whole entry, the tested form may be a part): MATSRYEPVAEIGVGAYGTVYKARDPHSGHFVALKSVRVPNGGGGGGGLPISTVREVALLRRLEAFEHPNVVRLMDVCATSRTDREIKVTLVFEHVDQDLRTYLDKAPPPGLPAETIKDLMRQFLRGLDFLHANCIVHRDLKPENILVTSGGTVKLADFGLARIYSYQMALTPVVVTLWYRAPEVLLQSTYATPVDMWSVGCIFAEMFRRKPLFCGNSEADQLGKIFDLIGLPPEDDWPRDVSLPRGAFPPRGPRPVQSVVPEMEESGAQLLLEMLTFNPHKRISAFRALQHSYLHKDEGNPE
T3 sequence (P24385 whole entry partner, the tested form may be a part): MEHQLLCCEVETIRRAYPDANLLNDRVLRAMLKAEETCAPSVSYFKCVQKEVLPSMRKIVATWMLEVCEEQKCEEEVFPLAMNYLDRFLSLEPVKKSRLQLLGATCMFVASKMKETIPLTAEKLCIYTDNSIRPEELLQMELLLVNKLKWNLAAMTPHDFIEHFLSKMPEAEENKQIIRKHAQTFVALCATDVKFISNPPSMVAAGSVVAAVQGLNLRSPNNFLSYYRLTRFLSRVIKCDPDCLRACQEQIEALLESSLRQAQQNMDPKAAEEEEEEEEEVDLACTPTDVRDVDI
Briefly: NanoBRET Target Engagement (TE) Intracellular Kinase Assay, CDK4/CCND1. Particulars: NanoBRET TE intracellular kinase assay, 2-hour incubation, read-out: NanoBRET-CDK4/D1 IC50. Type of data set: cell-based.

Data set [5] concerns Phospho-Rb Ser807/811 in OVCAR3 cells. Kind of data set: OVCAR3 Phospho-Rb Ser807/811 HTRF assay. Type of data set: cell-based. The note with it: Homo sapiens, OVCAR-3, 1 h, read-out: pRb-OVCAR3 IC50. As to the method: Cells were trypsinized and resuspended in 1 mM hydroxyurea (Sigma; H8627), 90% RPMI and 10% fetal bovine serum. […] Dose response curve normalized to DMSO control was plotted using four-parameter logistic model for IC50 calculation.
(In general: In TR-FRET formats the signal depends on donor and acceptor labels being close together.)

The mark [6] stands for this setting: NanoBRET TE intracellular kinase assay, read-out: NanoBRET-CDK2/E1 IC50.
The mark [7] stands for this setting: OVCAR3 cells, Phospho-Rb Ser807/811 HTRF, 1 hour incubation.

Converted amounts (≈) assume the structure as drawn. “Also recorded” adds a separate entry of the source. Read-outs that look alike come from different tables or passages of the source.

With `COc1cc(O)c(/C=N/C(C)C)c2c1CC(C(=O)Nc1cc([C@H]3CC[C@@H](OC(=O)NC(C)(C)C)C3)[nH]n1)C2` (single isomer, unassigned) [Compound 283a, (1R,3S)-3-(3-((*)-5-hydroxy-4-((E)-(isopropylimino)methyl)-7-methoxy-2,3-dihydro-1H-indene-2-carboxamido)-1H-pyrazol-5-yl)cyclopentyl tert-butylcarbamate], the solubility at 2 h in data set [1] was determined as 149 µM (≈ 78.3 µg/mL).

In the case of `COc1cc(O)c(/C=N/C(C)C)c2c1CC(C(=O)Nc1cc([C@H]3CC[C@@H](OC(=O)N(C)N(C)C)C3)n[nH]1)C2` (single isomer, unassigned) [Compound 284a, (1R,3S)-3-(5-((*)-5-hydroxy-4-((E)-(isopropylimino)methyl)-7-methoxy-2,3-dihydro-1H-indene-2-carboxamido)-1H-pyrazol-3-yl)cyclopentyl 1,2,2-trimethylhydrazine-1-carboxylate], in data set [1], the solubility at 2 h came to 253 µM (≈ 133 µg/mL).

As to `C#Cc1cccc(OCC(=O)Nc2cc([C@H]3CC[C@@H](OC(=O)NC(C)C)C3)[nH]n2)c1C=O` [Compound 51, (1R,3S)-3-(3-(2-(3-ethynyl-2-formylphenoxy)acetamido)-1H-pyrazol-5-yl)cyclopentyl isopropylcarbamate], the IC50 was found to be 354 nM in data set [2], 7.58 nM in data set [3] (setting [6]), 4100 nM in data set [4] and 1150 nM in data set [5] (setting [7]). Moreover, at pCDK2-CCNE1 proteins, the “Observed mass value of the covalent complex between compound and CDK2 protein” value (“Observed mass value” below) was determined as 34519 Da. The “Covalent complex formation with CDK2 protein (intact mass spectra after sodium borohydride reduction)” value on pCDK2-CCNE1 proteins is “formed a covalent complex with CDK2 protein”. Besides, at pCDK2-CCNE1 proteins, the “Binding pocket by competition: complex formation in presence of molar excess PF-06873600” value is “bound to the same binding pocket of CDK2 as the competitor molecule PF-06873600”.

In the case of `C#Cc1cccc(-c2cc(C(=O)Nc3cc([C@H]4CC[C@@H](OC(=O)NC(C)C)C4)[nH]n3)n(C)n2)c1C=O` [Compound 52, (1R,3S)-3-(3-(3-(3-ethynyl-2-formylphenyl)-1-methyl-1H-pyrazole-5-carboxamido)-1H-pyrazol-5-yl)cyclopentyl isopropylcarbamate], the IC50 in data set [2] came out at 383 nM; in data set [3] (setting [6]) it was 21.7 nM; in data set [4], 543 nM; in data set [5] (setting [7]) it was 2430 nM. In addition, at pCDK2-CCNE1 proteins, the “Covalent complex formation with CDK2 protein (intact mass spectra after sodium borohydride reduction)” value is “resulted in covalent complex formation”.

`COc1cc(O)c(C=O)c(OCC(=O)Nc2cc([C@H]3CC[C@@H](OC(=O)NC(C)C)C3)[nH]n2)c1` [Compound 64, (1R,3S)-3-{5-[2-(2-formyl-3-hydroxy-5-methoxyphenoxy)acetamido]-2H-pyrazol-3-yl}cyclopentyl N-isopropylcarbamate]: the IC50 in data set [2] was 9.52 nM; in data set [3] (setting [6]) it was 2.76 nM; in data set [4] it was greater than 6430 nM; in data set [5] (setting [7]), 33.2 nM. Besides, the “Observed mass value” value on pCDK2-CCNE1 proteins came out at 34539 Da. At pCDK2-CCNE1 proteins, the “Covalent complex formation with CDK2 protein (intact mass spectra after sodium borohydride reduction)” value is listed as “resulted in covalent complex formation”.

On to `COc1cc(O)c(/C=N/C(C)C)c(OCC(=O)Nc2cc([C@H]3CC[C@@H](OC(=O)NC(C)C)C3)[nH]n2)c1` [Compound 64a, (1R,3S)-3-(3-(2-(3-hydroxy-2-((E)-(isopropylimino)methyl)-5-methoxyphenoxy)acetamido)-1H-pyrazol-5-yl)cyclopentyl isopropylcarbamate], for which, in data set [1], the solubility at 2 h stood at 215 µM (≈ 108 µg/mL).

Consider `CCC/N=C/c1c(O)cc(OC)cc1OCC(=O)Nc1cc([C@H]2CC[C@@H](OC(=O)NC(C)C)C2)[nH]n1` [Compound 64b, (1R,3S)-3-(3-(2-(3-hydroxy-5-methoxy-2-((E)-(propylimino)methyl)phenoxy)acetamido)-1H-pyrazol-5-yl)cyclopentyl isopropylcarbamate], for which the solubility at 2 h in data set [1] was 79 µM (≈ 39.6 µg/mL).

As to `CC/N=C/c1c(O)cc(OC)cc1OCC(=O)Nc1cc([C@H]2CC[C@@H](OC(=O)NC(C)C)C2)[nH]n1` [Compound 64c, (1R,3S)-3-(3-(2-(2-((E)-(ethylimino)methyl)-3-hydroxy-5-methoxyphenoxy)acetamido)-1H-pyrazol-5-yl)cyclopentyl isopropylcarbamate], the solubility at 2 h in data set [1] turned out to be 246 µM (≈ 120 µg/mL).

Take `CCCC/N=C/c1c(O)cc(OC)cc1OCC(=O)Nc1cc([C@H]2CC[C@@H](OC(=O)NC(C)C)C2)[nH]n1` [Compound 64d, (1R,3S)-3-(3-(2-(2-((E)-(butylimino)methyl)-3-hydroxy-5-methoxyphenoxy)acetamido)-1H-pyrazol-5-yl)cyclopentyl isopropylcarbamate]: in data set [1], the solubility at 2 h was 67 µM (≈ 34.5 µg/mL).

Take `CC(C)NC(=O)O[C@@H]1CC[C@H](c2cc(NC(=O)c3ccnc(Oc4cccc(O)c4C=O)c3)n[nH]2)C1` [Compound 69, (1R,3S)-3-{5-[2-(2-formyl-3-hydroxyphenoxy)pyridine-4-amido]-2H-pyrazol-3-yl}cyclopentyl N-isopropylcarbamate; trifluoroacetic acid]: the IC50 in data set [2] turned out to be 79 nM; in data set [3] (NanoBRET-CDK2/E1 IC50, NanoBRET TE intracellular kinase assay) it was 1.92 nM; in data set [4], 1950 nM; in data set [5], 730 nM. Also, on pCDK2-CCNE1 proteins, the “Observed mass value” value is recorded as 34574 Da. In addition, at pCDK2-CCNE1 proteins (trifluoroacetic acid), the “Covalent complex formation with CDK2 protein (intact mass spectra after sodium borohydride reduction)” value is given as “formed a covalent complex with CDK2 protein; also recorded: resulted in covalent complex formation”. At pCDK2-CCNE1 proteins, the “Binding pocket by competition: complex formation in presence of molar excess PF-06873600” value was “bound to the same binding pocket of CDK2 as the competitor molecule PF-06873600”.

On to `CC1(NC(=O)O[C@@H]2CC[C@H](c3cc(NC(=O)COc4cccc(O)c4C=O)n[nH]3)C2)CC1` [Compound 82, (1R,3S)-3-{5-[2-(2-formyl-3-hydroxyphenoxy)acetamido]-2H-pyrazol-3-yl}cyclopentyl N-(1-methylcyclopropyl)carbamate; trifluoroacetic acid], for which the IC50 in data set [2] stood at 11.3 nM; in data set [3] (setting [6]) it was 3.32 nM; in data set [4] it was 4420 nM; in data set [5] (setting [7]), 43.2 nM. For the same compound, the “Observed mass value” value on pCDK2-CCNE1 proteins was 34523 Da. Also, on pCDK2-CCNE1 proteins, the “Covalent complex formation with CDK2 protein (intact mass spectra after sodium borohydride reduction)” value is given as “resulted in covalent complex formation”.

Take `COc1cc(OC)c(C=O)c(OCC(=O)Nc2cc([C@H]3CC[C@@H](OC(=O)NC(C)C)C3)[nH]n2)c1` [Compound 103, (1R,3S)-3-{5-[2-(2-formyl-3,5-dimethoxyphenoxy)acetamido]-2H-pyrazol-3-yl}cyclopentyl N-isopropylcarbamate]: the IC50 in data set [2] stood at 5.66 nM; in data set [3] (setting [6]), 1.43 nM; in data set [4], 3790 nM; in data set [5] (setting [7]), 31.7 nM. The “Observed mass value” value on pCDK2-CCNE1 proteins came out at 34554 Da. Also, on pCDK2-CCNE1 proteins, the “Covalent complex formation with CDK2 protein (intact mass spectra after sodium borohydride reduction)” value is “resulted in covalent complex formation”.

As usually defined, the solubility is how much of the substance goes into solution per volume.

The values are drawn from patent US20250289789A1, “REVERSIBLE LYSINE COVALENT MODIFIERS OF CDK2 AND USES THEREOF” (Terremoto Biosciences, Inc., priority 2023, published 2025).
